How the values were obtained:
blackgrass = assay: Test B pre/postemergence blackgrass; type: in vivo, Alopecurus myosuroides
Outline: (§1)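 Test chemicals in a non-phytotoxic solvent mixture with surfactant were sprayed preemergence onto planted seeds and postemergence onto plants 2 to 18 cm tall (1- to 4-leaf stage). After twelve to sixteen days in a greenhouse, injury was visually rated against untreated controls from 0 (no effect) to 10 (complete control).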

sugar beet = assay: Test B pre/postemergence sugar beet; type: in vivo, Beta vulgaris
Outline: as §1

wild oat = assay: Test B pre/postemergence wild oat; type: in vivo, Avena fatua
Outline: as §1

rape = assay: Test B pre/postemergence rape; type: in vivo, Brassica napus
Outline: as §1

soybean = assay: Test B pre/postemergence soybean; type: in vivo, Glycine max
Outline: as §1

purple nutsedge = assay: Test B pre/postemergence purple nutsedge; type: in vivo, Cyperus rotundus
Outline: as §1

corn = assay: Test B pre/postemergence corn; type: in vivo, Zea mays
Outline: as §1

surinam grass = assay: Test B pre/postemergence surinam grass; type: in vivo, Brachiaria decumbens
Outline: as §1

morningglory = assay: Test B pre/postemergence morningglory; type: in vivo, Ipomoea hederacea
Outline: as §1

giant foxtail = assay: Test B pre/postemergence giant foxtail; type: in vivo, Setaria faberii
Outline: as §1

velvetleaf = assay: Test B pre/postemergence velvetleaf; type: in vivo, Abutilon theophrasti
Outline: as §1

cocklebur = assay: Test B pre/postemergence cocklebur; type: in vivo, Xanthium strumarium
Outline: as §1

crabgrass = assay: Test B pre/postemergence crabgrass; type: in vivo, Digitaria sanguinalis
Outline: as §1

wheat = assay: Test B pre/postemergence wheat; type: in vivo, Triticum aestivum
Outline: as §1

bedstraw = assay: Test B pre/postemergence bedstraw; type: in vivo, Galium aparine; details: Preemergence
Outline: as §1

pigweed = assay: Test B pre/postemergence pigweed; type: in vivo, Amaranthus retroflexus
Outline: as §1

[1] = Postemergence, Rate 62 g/ha, scale 0 to 10, 0 is no effect, 10 is complete control
[2] = Postemergence, Rate 125 g/ha, scale of 0 to 10 where 0 is no effect and 10 is complete control
[3] = Preemergence, Rate 62 g/ha, scale of 0 to 10 where 0 is no effect and 10 is complete control
[4] = Preemergence, Rate 125 g/ha, scale of 0 to 10 where 0 is no effect and 10 is complete control
[5] = Preemergence, Rate 250 g/ha, scale 0 (no effect) to 10 (complete control)
[6] = Preemergence, Rate 500 g/ha, scale of 0 to 10 where 0 is no effect and 10 is complete control
[7] = Rate 250 g/ha, Postemergence, scale 0 to 10, 0 is no effect, 10 is complete control
[8] = Rate 500 g/ha, Postemergence, scale 0 to 10, 0 is no effect, 10 is complete control

## CC(C)N(C(=O)n1oc(=O)n(CCCCl)c1=O)c1ccc(F)cc1 [Compound 713]
blackgrass; [1]
  Plant response rating, Blackgrass: 1
blackgrass; [2]
  Blackgrass plant response rating: 3
blackgrass; [3]
  Blackgrass plant response rating: 5
blackgrass; [4]
  Plant response rating, Blackgrass: 8
blackgrass; [5]
  Blackgrass plant response rating: 9
blackgrass; [6]
  Plant response rating, Blackgrass: 9
blackgrass; [7]
  Blackgrass plant response rating: 7
blackgrass; [8]
  Blackgrass plant response rating: 7
Sugar beet; [1]
  Plant response rating, Sugarbeets: 0
Sugar beet; [2]
  Sugarbeets plant response rating: 0
Sugar beet; [3]
  Sugarbeets plant response rating: 3
Sugar beet; [4]
  Plant response rating, Sugarbeets: 4
Sugar beet; [5]
  Sugarbeets plant response rating: 7
Sugar beet; [7]
  Sugarbeets plant response rating: 0
Sugar beet; [8]
  Sugarbeets plant response rating: 5
Wild oat; [1]
  Plant response rating, Wild oats: 0
Wild oat; [2]
  Wild oats plant response rating: 0
Wild oat; [3]
  Wild oats plant response rating: 2
Wild oat; [4]
  Plant response rating, Wild oats: 5
Wild oat; [5]
  Wild oats plant response rating: 8
Wild oat; [7]
  Wild oats plant response rating: 1
Wild oat; [8]
  Wild oats plant response rating: 5
rape; [1]
  Plant response rating, Rape: 0
rape; [2]
  Rape plant response rating: 0
rape; [3]
  Rape plant response rating: 4
rape; [4]
  Plant response rating, Rape: 4
rape; [5]
  Rape plant response rating: 8
rape; [7]
  Rape plant response rating: 6
rape; [8]
  Rape plant response rating: 6
soybean; [1]
  Plant response rating, Soybean: 3
soybean; [2]
  Soybean plant response rating: 4
soybean; [3]
  Soybean plant response rating: 0
soybean; [4]
  Plant response rating, Soybean: 0
soybean; [5]
  Soybean plant response rating: 0
soybean; [7]
  Soybean plant response rating: 5
soybean; [8]
  Soybean plant response rating: 5
Purple nutsedge; [1]
  Plant response rating, Nutsedge: 0
Purple nutsedge; [2]
  Nutsedge plant response rating: 0
Purple nutsedge; [3]
  Nutsedge plant response rating: 0
Purple nutsedge; [4]
  Plant response rating, Nutsedge: 0
Purple nutsedge; [5]
  Nutsedge plant response rating: 0
Purple nutsedge; [7]
  Nutsedge plant response rating: 0
Purple nutsedge; [8]
  Nutsedge plant response rating: 3
corn; [1]
  Plant response rating, Corn: 0
corn; [2]
  Corn plant response rating: 0
corn; [3]
  Corn plant response rating: 0
corn; [4]
  Plant response rating, Corn: 0
corn; [5]
  Corn plant response rating: 0
corn; [7]
  Corn plant response rating: 0
corn; [8]
  Corn plant response rating: 5
Surinam grass; [1]
  Plant response rating, B. signalgrass: 0
Surinam grass; [2]
  B. signalgrass plant response rating: 3
Surinam grass; [3]
  B. signalgrass plant response rating: 5
Surinam grass; [4]
  Plant response rating, B. signalgrass: 7
Surinam grass; [5]
  B. signalgrass plant response rating: 8
Surinam grass; [6]
  Plant response rating, B. signalgrass: 9
Surinam grass; [7]
  B. signalgrass plant response rating: 5
Surinam grass; [8]
  B. signalgrass plant response rating: 7
morningglory; [1]
  Plant response rating, Morningglory: 2
morningglory; [2]
  Morningglory plant response rating: 3
morningglory; [3]
  Morningglory plant response rating: 0
morningglory; [4]
  Plant response rating, Morningglory: 0
morningglory; [5]
  Morningglory plant response rating: 0
morningglory; [7]
  Morningglory plant response rating: 7
morningglory; [8]
  Morningglory plant response rating: 10
Giant foxtail; [1]
  Plant response rating, Giant foxtail: 4
Giant foxtail; [2]
  Giant foxtail plant response rating: 9
Giant foxtail; [3]
  Giant foxtail plant response rating: 10
Giant foxtail; [4]
  Plant response rating, Giant foxtail: 10
Giant foxtail; [5]
  Giant foxtail plant response rating: 10
Giant foxtail; [7]
  Giant foxtail plant response rating: 9
Giant foxtail; [8]
  Giant foxtail plant response rating: 9
velvetleaf; [1]
  Plant response rating, Velvetleaf: 3
velvetleaf; [2]
  Velvetleaf plant response rating: 6
velvetleaf; [3]
  Velvetleaf plant response rating: 2
velvetleaf; [4]
  Plant response rating, Velvetleaf: 5
velvetleaf; [5]
  Velvetleaf plant response rating: 5
velvetleaf; [7]
  Velvetleaf plant response rating: 6
velvetleaf; [8]
  Velvetleaf plant response rating: 7
cocklebur; [1]
  Plant response rating, Cocklebur: 1
cocklebur; [2]
  Cocklebur plant response rating: 2
cocklebur; [3]
  Cocklebur plant response rating: 0
cocklebur; [4]
  Plant response rating, Cocklebur: 0
cocklebur; [5]
  Cocklebur plant response rating: 0
cocklebur; [6]
  Plant response rating, Cocklebur: 0
cocklebur; [7]
  Cocklebur plant response rating: 3
cocklebur; [8]
  Cocklebur plant response rating: 6
crabgrass; [1]
  Plant response rating, Crabgrass: 2
crabgrass; [2]
  Crabgrass plant response rating: 9
crabgrass; [3]
  Crabgrass plant response rating: 10
crabgrass; [4]
  Plant response rating, Crabgrass: 10
crabgrass; [5]
  Crabgrass plant response rating: 10
crabgrass; [7]
  Crabgrass plant response rating: 9
crabgrass; [8]
  Crabgrass plant response rating: 9
wheat; [1]
  Plant response rating, Wheat: 0
wheat; [2]
  Wheat plant response rating: 1
wheat; [3]
  Wheat plant response rating: 0
wheat; [4]
  Plant response rating, Wheat: 0
wheat; [5]
  Wheat plant response rating: 1
wheat; [7]
  Wheat plant response rating: 2
wheat; [8]
  Wheat plant response rating: 2
bedstraw; Rate 62 g/ha, scale of 0 to 10 where 0 is no effect and 10 is complete control
  Bedstraw plant response rating: 0
bedstraw; Rate 125 g/ha, scale of 0 to 10 where 0 is no effect and 10 is complete control
  Plant response rating, Bedstraw: 0
bedstraw; Rate 250 g/ha, scale 0 (no effect) to 10 (complete control)
  Bedstraw plant response rating: 2
bedstraw; Rate 500 g/ha, scale of 0 to 10 where 0 is no effect and 10 is complete control
  Plant response rating, Bedstraw: 6
pigweed; [1]
  Plant response rating, Redroot pigweed: 2
pigweed; [3]
  Redroot pigweed plant response rating: 6
pigweed; [4]
  Plant response rating, Redroot pigweed: 7
pigweed; [5]
  Redroot pigweed plant response rating: 8
pigweed; [7]
  Redroot pigweed plant response rating: 9
pigweed; [8]
  Redroot pigweed plant response rating: 9

From patent US6737383B1, “Herbicidal oxadiazolidines” (priority 1999, dated 2004)
